The source of these data is patent US20240315297A1, “STEVIOL GLYSOCIDE SOLUBILITY ENHANCERS” (CARGILL, INCORPORATED, priority 2017, published 2024).

A short description of data set [1]: Observation of samples for solubility/precipitation in water (Example 9). Type of data set: physicochemical. Particulars: for time over which a soluble solution was promoted: 0.3% steviol glycoside mixture, 5:1 molar ratio of acid to steviol glycoside.
For data set [2] the following is noted: sensory evaluation; cited from earlier work.
Data set [3] is classed as physicochemical. From the text: The composition can optionally be expressed in terms of the concentration of one or more steviol glycoside(s). […] Clear solutions without precipitates are considered soluble. Unless indicated otherwise herein, the term “solubility” refers to “equilibrium solubility.”

Each structure is given as a SMILES string.

In the case of `O=C(O)c1cc(O)c(O)c(O)c1` [Gallic acid], in data set [1] (more apparent at higher concentrations, observed after about 3 days), the “colour imparted to the sample solutions” value was “brownish tinge”. With `O=C(O)C(O)c1ccccc1` (centres unmarked) [Mandelic acid], the “time over which a soluble solution was promoted” value in data set [1] was determined as 3 days. Same read-out and setting: under `O=C(O)c1cc(C(=O)O)c(C(=O)O)cc1C(=O)O` [Pyromellitic acid] stands 3 days.

As for `C=C1C[C@@]23CC[C@H]4[C@@](C)(CCC[C@@]4(C)C(=O)O[C@@H]4O[C@H](CO)[C@@H](O)[C@H](O)[C@H]4O[C@@H]4O[C@H](CO)[C@@H](O)[C@H](O)[C@H]4O)[C@@H]2CC[C@]1(O[C@@H]1O[C@H](CO)[C@@H](O)[C@H](O[C@@H]2O[C@H](CO)[C@@H](O)[C@H](O)[C@H]2O)[C@H]1O[C@@H]1O[C@H](CO)[C@@H](O)[C@H](O)[C@H]1O)C3` [Rebaudioside D, rebaudioside D], the “times sweeter than sucrose” value in data set [2] was 200-220 times. Also, in data set [3], the equilibrium solubility came out at 0.08% and the instantaneous solubility result was “less than 0.08%”. `C=C1C[C@@]23CC[C@H]4[C@@](C)(CCC[C@@]4(C)C(=O)O[C@@H]4O[C@H](CO)[C@@H](O)[C@H](O[C@@H]5O[C@H](CO)[C@@H](O)[C@H](O)[C@H]5O)[C@H]4O[C@@H]4O[C@H](CO)[C@@H](O)[C@H](O)[C@H]4O)[C@@H]2CC[C@]1(O[C@@H]1O[C@H](CO)[C@@H](O)[C@H](O[C@@H]2O[C@H](CO)[C@@H](O)[C@H](O)[C@H]2O)[C@H]1O[C@@H]1O[C@H](CO)[C@@H](O)[C@H](O)[C@H]1O)C3` [Rebaudioside M, rebaudioside M]: in data set [3], the equilibrium solubility entry is “about 0.2%” and the instantaneous solubility result is “about 0.13%”.
